{
  "source": "ChEMBL document CHEMBL1177644",
  "about": "“16-bromoepiandrosterone, an activator of the mammalian immune system, inhibits glucose 6-phosphate dehydrogenase from Trypanosoma cruzi and is toxic to these parasites grown in culture” (Bioorg Med Chem, 2010)",
  "key": {"[1]": {"tested_on": "Trypanosoma cruzi", "experiment": "Antitrypanosomal activity against Trypanosoma cruzi Y epimastigotes assessed as viability after 72 hrs by MTS assay", "type": "functional", "details": "read-out: LD50 (the source's name)"}, "[2]": {"experiment": "Inhibition of His-tagged Trypanosoma cruzi G6PDH expressed in Escherichia coli BL21 by spectrophotometry"}},
  "data": [
    {"compound": "C[C@]12CC[C@H](O)CC1=CC[C@@H]1[C@@H]2CC[C@]2(C)C(=O)[C@H](Br)C[C@@H]12", "values": [
      {"measurement": "LC50", "setting": "[1]", "result": 20.6, "unit": "µM"},
      {"measurement": "IC50", "setting": "[2]", "result": 0.216, "unit": "µM"}
    ]},
    {"compound": "C[C@]12CC[C@H](O)CC1=CC[C@@H]1[C@@H]2CC[C@]2(C)C(=O)CC[C@@H]12", "note": "[PRASTERONE]", "values": [
      {"measurement": "IC50", "setting": "[2]", "result": 25, "unit": "µM"}
    ]},
    {"compound": "C[C@]12CC[C@H](O)C[C@@H]1CC[C@@H]1[C@@H]2CC[C@]2(C)C(=O)CC[C@@H]12", "note": "[EPIANDROSTERONE]", "values": [
      {"measurement": "LC50", "setting": "[1]", "result": 36.5, "unit": "µM"},
      {"measurement": "IC50", "setting": "[2]", "result": 5.6, "unit": "µM"}
    ]},
    {"compound": "C[C@]12CC[C@H](O)C[C@@H]1CC[C@@H]1[C@@H]2CC[C@]2(C)C(=O)[C@H](Br)C[C@@H]12", "note": "[16.ALPHA.-BROMOEPIANDROSTERONE]", "values": [
      {"measurement": "LC50", "setting": "[1]", "result": 12.4, "unit": "µM"},
      {"measurement": "IC50", "setting": "[2]", "result": 0.086, "unit": "µM"}
    ]}
  ]
}
